{
  "source": "patent US7470703B1",
  "about": "(priority 2004, dated 2008)",
  "key": {"human α2C-AR [1]": {"target": "T1, human α2C-AR (Homo sapiens, UniProt P18825)", "T1 sequence (P18825 1-462)": "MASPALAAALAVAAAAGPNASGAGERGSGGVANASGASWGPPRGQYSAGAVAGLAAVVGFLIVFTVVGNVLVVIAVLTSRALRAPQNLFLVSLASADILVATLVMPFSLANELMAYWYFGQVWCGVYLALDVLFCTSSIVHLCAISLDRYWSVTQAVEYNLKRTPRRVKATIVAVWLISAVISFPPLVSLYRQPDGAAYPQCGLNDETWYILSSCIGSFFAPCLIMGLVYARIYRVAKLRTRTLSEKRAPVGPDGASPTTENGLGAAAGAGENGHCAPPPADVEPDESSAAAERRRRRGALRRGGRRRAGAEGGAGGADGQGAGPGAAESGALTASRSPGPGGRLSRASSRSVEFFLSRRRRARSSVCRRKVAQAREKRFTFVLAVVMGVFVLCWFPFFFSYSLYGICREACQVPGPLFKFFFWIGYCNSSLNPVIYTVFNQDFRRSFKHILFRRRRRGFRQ", "experiment": "Radioligand binding ([3H]rauwolscine) in CHO cells expressing human α2C-AR", "parameters": "expressed in transfected cells", "conditions": "for binding affinity for the α2C-AR greater than on the α1-AR subtypes: comparing Tables 1 and 3; for selectivity in binding to the α2C- versus the α2A-AR / selectivity in binding to the α2C- versus the α2B-AR: from binding affinities", "procedure": "(§1) Radioligand binding studies were conducted in CHO cells expressing homogeneous populations of α2A-, α2B- and α2C-ARs. Similar studies were performed in HEK293 cells expressing homogeneous populations of α1A-, α1B- and α1D-ARs. Briefly, CHO cells were harvested using Ham's F-12 media following trypsinization while HEK293 cells were detached by simple scraping. The cell suspension was centrifuged and the pellet re-suspended in Tris-EDTA buffer, pH 7.4. […] The assays were conducted in a final volume of 2 ml. Non-specific binding was determined in the presence of 10 μM phentolamine. The percentage of specific binding was determined by dividing the difference between the total bound (dpm) and nonspecific bound (dpm) by the total bound (dpm). […] Inhibition of specific binding by the competitors was determined using varying concentrations of the analogs. Incubations were terminated at 60 minutes by rapid filtration over Whatman GF/C glass fiber filters (Maidstone, UK) using a cell harvester (Brandel Inc., Gaithersburg, Md.). The filter discs were washed three times with Tris-EDTA buffer, pH 7.4, at 4° C. The radioactivity was quantified by using a Packard TRI-CARB 2900 TR Liquid Scintillation Analyzer (Packard Instrument Company, CT, USA) and data analyzed using GraphPad Prism (GraphPad Software, San Diego, Calif., USA).\n(§2) Scatchard analyses were carried out using varying concentrations of selected radioligands to determine their affinities (KD) and maximal binding characteristics (Bmax). […] The total and nonspecific binding for each concentration was determined in triplicate. The specific binding, at each concentration of the radioligand, was established and plotted as bound ligand versus bound/free ligand and the corresponding KD and Bmax values calculated on each human α-AR subtype. Data are expressed as the mean±S.E.M. of n=6-9 experiments.\n(§3) Individual pKi values are used to determine whether there are significant differences among means of the analogs on the three α2-AR subtypes. […] The final data are presented as mean±SEM of n=4 or more experiments.\n(§4) Ki and IC50 values were calculated as described above."}, "mouse cremaster muscle [2]": {"system": "mouse cremaster muscle", "experiment": "Ex vivo mouse cremaster muscle vasoconstriction model", "conditions": "for EC50: Mus musculus, read-out: EC50 (vasoconstriction concentration-response)"}, "mouse cremaster muscle [3]": {"system": "mouse cremaster muscle", "experiment": "In vivo mouse cremaster muscle vessel diameter", "conditions": "intravenous 2 mg/kg, 37° C., n=6", "excerpt": "It is expected that this model also adequately represent the vasodilation in humans."}, "human α2A-AR [4]": {"target": "T2, human α2A-AR (Homo sapiens, UniProt P08913)", "T2 sequence (P08913 1-465)": "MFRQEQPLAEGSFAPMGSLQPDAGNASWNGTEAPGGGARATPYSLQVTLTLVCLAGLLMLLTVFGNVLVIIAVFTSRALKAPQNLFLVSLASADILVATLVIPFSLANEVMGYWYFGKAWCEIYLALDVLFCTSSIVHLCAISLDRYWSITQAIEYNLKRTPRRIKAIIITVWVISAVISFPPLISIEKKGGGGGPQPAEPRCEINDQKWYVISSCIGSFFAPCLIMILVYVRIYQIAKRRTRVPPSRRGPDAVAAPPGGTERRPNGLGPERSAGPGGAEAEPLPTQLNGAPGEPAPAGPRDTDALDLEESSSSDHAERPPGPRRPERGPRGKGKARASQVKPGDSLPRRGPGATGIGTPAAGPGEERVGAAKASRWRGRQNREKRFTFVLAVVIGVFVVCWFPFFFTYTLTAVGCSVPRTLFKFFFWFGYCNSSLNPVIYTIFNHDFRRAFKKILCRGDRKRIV", "experiment": "Radioligand binding ([3H]rauwolscine) in CHO cells expressing human α2A-AR", "parameters": "expressed in transfected cells", "procedure": "as §1, §2, §3, §4"}, "human α2B-AR": {"target": "T3, human α2B-AR (Homo sapiens, UniProt P18089)", "T3 construct": "expressed in transfected cells", "T3 sequence (P18089 1-450)": "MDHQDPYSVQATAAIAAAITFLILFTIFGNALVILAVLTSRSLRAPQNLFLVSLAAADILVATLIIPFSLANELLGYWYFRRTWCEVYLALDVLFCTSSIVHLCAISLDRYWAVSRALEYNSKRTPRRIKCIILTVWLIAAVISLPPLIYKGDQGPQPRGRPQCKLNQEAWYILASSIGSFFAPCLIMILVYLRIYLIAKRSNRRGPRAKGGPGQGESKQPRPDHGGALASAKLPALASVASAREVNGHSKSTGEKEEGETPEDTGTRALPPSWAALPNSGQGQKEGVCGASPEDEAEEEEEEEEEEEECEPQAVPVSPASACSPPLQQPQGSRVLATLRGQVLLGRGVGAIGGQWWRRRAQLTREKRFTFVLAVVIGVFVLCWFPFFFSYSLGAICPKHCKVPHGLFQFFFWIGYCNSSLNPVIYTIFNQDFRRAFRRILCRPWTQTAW", "experiment": "Radioligand binding ([3H]rauwolscine) in CHO cells expressing human α2B-AR", "procedure": "as §1, §2, §3, §4"}, "human α2C-AR [5]": {"target": "T1, human α2C-AR", "parameters": "expressed in transfected cells", "conditions": "literature; cited from earlier work"}, "human α2A-AR [6]": {"target": "T2, human α2A-AR", "experiment": "cell-based", "procedure": "(§5) The reporter gene assays were conducted in CHO cells expressing the human α2A- and α2C-AR subtype. The cells were grown to confluence, upon which they were isolated and electroporated in the presence of the plasmid. […] Cells were transiently transfected with the 6 CRE-LUC plasmid (5 μg/100 μl of cell suspension) using electroporation at 150 V, 70 ms, single pulse. Transfected cells were plated into a 96-well microplate at a density of approximately 50,000 cells per well and allowed to grow for 20 hours.\n(§6) The assays with both α2A- and α2C-ARs were conducted using the non-subtype selective α2-AR agonist, medetomidine, to block the cAMP changes induced by the adenyl cyclase activator, forskolin. […] Basal values (solvent control) were subtracted from the forskolin values and the resulting forskolin response was used as 100%. Similarly, basal values were subtracted from all other values obtained with ligands, and the data expressed as a percentage luciferase response relative to that of forskolin alone.\n(§7) The agonist ligand, medetomidine, was added directly to the medium 20 minutes prior to the addition of forskolin and then allowed to incubate for 4 hours. […] These compounds were added 20 minutes prior to the addition of medetomidine."}, "human α2C-AR [7]": {"target": "T1, human α2C-AR", "experiment": "cell-based", "procedure": "as §5, §6, §7"}, "[8]": {"conditions": "CHO cells, [3H]rauwolscine competition"}, "[9]": {"conditions": "CHO, read-out: inhibition of forskolin-induced cAMP response (luciferase)"}},
  "note": "Read-outs that look alike come from different tables or passages of the source. Marks after values point to notes of the source that are not given here.",
  "data": [
    {"compound": "COC(=O)[C@@H]1[C@H]2C[C@H]3c4[nH]c5ccccc5c4CCN3C[C@@H]2CC[C@@H]1O", "note": "[Compound 1, Yohimbine]", "values": [
      {"measurement": "binding affinity for the α2C-AR greater than on the α1-AR subtypes", "setting": "human α2C-AR [1]", "result": "at least 224 fold"},
      {"measurement": "reversal of medetomidine induced vasoconstriction", "setting": "mouse cremaster muscle [2]; 30, 100, and 300 nM", "result": "reversed"},
      {"measurement": "increase in vessel diameter", "setting": "mouse cremaster muscle [3]", "result": "22.14±1.08", "unit": "%"}
    ]},
    {"compound": "O=C(O)[C@@H]1[C@H]2C[C@H]3c4[nH]c5ccccc5c4CCN3C[C@@H]2CC[C@@H]1O", "note": "[Compound 2, Yohimbinic acid]", "values": [
      {"measurement": "decrease in binding potency at the α2C-AR as compared to yohimbine", "setting": "human α2C-AR [1]", "result": 20, "unit": "fold"},
      {"measurement": "Ki", "setting": "human α2C-AR [1]; CHO cells", "result": 19.4, "unit": "nM"},
      {"measurement": "selectivity in binding to the α2C- versus the α2A-AR", "setting": "human α2C-AR [1]", "result": "around 32 fold"},
      {"measurement": "selectivity in binding to the α2C- versus the α2B-AR", "setting": "human α2C-AR [1]", "result": "equipotent"},
      {"measurement": "decrease in binding potency at the α2A-AR as compared to yohimbine", "setting": "human α2A-AR [4]", "result": 345, "unit": "fold"},
      {"measurement": "Ki", "setting": "human α2A-AR [4]; CHO cells", "result": 616, "unit": "nM"},
      {"measurement": "binding at the α2B-AR versus the α2A-AR", "setting": "human α2B-AR", "result": 46, "unit": "fold"},
      {"measurement": "decrease in binding potency at the α2B-AR as compared to yohimbine", "setting": "human α2B-AR", "result": 2, "unit": "fold"},
      {"measurement": "Ki", "setting": "human α2B-AR; CHO cells", "result": 13.4, "unit": "nM"}
    ]},
    {"compound": "O=C(NCCCNC(=O)C1C(O)CCC2CN3CCc4c([nH]c5ccccc45)C3CC21)C1C(O)CCC2CN3CCc4c([nH]c5ccccc45)C3CC21", "note": "(stereo not drawn) [Compound 3]", "values": [
      {"measurement": "Ki", "setting": "human α2C-AR [1]; CHO cells", "result": 8.91, "unit": "nM"},
      {"measurement": "α2C pKi ± SEM", "setting": "human α2C-AR [1]; [8]", "result": "8.05 ± 0.04^b"},
      {"measurement": "selectivity in binding to the α2C- versus the α2A-AR", "setting": "human α2C-AR [1]", "result": 18, "unit": "fold"},
      {"measurement": "selectivity in binding to the α2C- versus the α2B-AR", "setting": "human α2C-AR [1]", "result": 68, "unit": "fold"},
      {"measurement": "selectivity in binding to the α2C- versus α2A-AR (Lalchandani et al. 2002)", "setting": "human α2C-AR [5]", "result": 32, "unit": "fold"},
      {"measurement": "selectivity in binding to the α2C- versus α2B-AR (Lalchandani et al. 2002)", "setting": "human α2C-AR [5]", "result": 355, "unit": "fold"},
      {"measurement": "Ki", "setting": "human α2A-AR [4]; CHO cells", "result": 158, "unit": "nM"},
      {"measurement": "α2A pKi ± SEM", "setting": "human α2A-AR [4]; [8]", "result": "6.80 ± 0.02^a"},
      {"measurement": "Ki", "setting": "human α2B-AR; CHO cells", "result": 602, "unit": "nM"},
      {"measurement": "α2B pKi ± SEM", "setting": "human α2B-AR; [8]", "result": "6.22 ± 0.03"}
    ]},
    {"compound": "Cc1cccc(C(C)c2cnc[nH]2)c1C", "note": "(stereo not drawn) [medetomidine]", "values": [
      {"measurement": "shift of the curve (to the left) at the lower temperature", "setting": "mouse cremaster muscle [2]; 25° C. vs 37° C.", "result": 10, "unit": "fold"},
      {"measurement": "EC50", "setting": "mouse cremaster muscle [2]; 25° C.", "result": 2.15, "unit": "nM"},
      {"measurement": "EC50", "setting": "mouse cremaster muscle [2]; 37° C.", "result": 20.4, "unit": "nM"},
      {"measurement": "inhibition at 0.01 µM", "setting": "human α2A-AR [6]; [9]", "result": 56, "unit": "%"},
      {"measurement": "increase in cAMP levels, alone (in the absence of forskolin)", "setting": "human α2A-AR [6]; α2A-AR, 10 μM", "result": 17, "unit": "%"},
      {"measurement": "inhibition at 1 µM", "setting": "human α2C-AR [7]; [9]", "result": 70, "unit": "%"},
      {"measurement": "increase in cAMP levels, alone (in the absence of forskolin)", "setting": "human α2C-AR [7]; α2C-AR, 1 μM", "result": "did not show an increase in cAMP levels"}
    ]},
    {"compound": "[^3H]rauwolscine [[^3H]rauwolsine]", "values": [
      {"measurement": "Bmax α2C", "setting": "human α2C-AR [1]; saturation binding, CHO cells", "result": "1.20±0.13", "unit": "pmoles/mg protein"},
      {"measurement": "Bmax α2A", "setting": "human α2A-AR [4]; saturation binding, CHO cells", "result": "8.20±0.71", "unit": "pmoles/mg protein"}
    ]},
    {"compound": "yohimbine benzyl carbamate propyl amine [Compound 7]", "values": [
      {"measurement": "binding affinity for the α2C-AR greater than on the α1-AR subtypes", "setting": "human α2C-AR [1]", "result": "≥ 562", "unit": "fold"},
      {"measurement": "mean percent inhibition (of the medetomidine response)", "setting": "human α2A-AR [6]; α2A-AR, test compound 0.1 μM, medetomidine 0.01 μM, forskolin 5 μM", "result": 54, "unit": "%"}
    ]}
  ]
}
